{
  "source": "patent US7781438B2",
  "about": "“Indolylmaleimide derivatives” (Novartis AG, priority 2005, dated 2010)",
  "key": {"[1]": {"target": "T1, Human recombinant PKCβ1 (Homo sapiens, UniProt P05771)", "T1 construct": "purchased Oxford Biomedical Research", "T1 sequence (P05771 whole entry, canonical isoform)": "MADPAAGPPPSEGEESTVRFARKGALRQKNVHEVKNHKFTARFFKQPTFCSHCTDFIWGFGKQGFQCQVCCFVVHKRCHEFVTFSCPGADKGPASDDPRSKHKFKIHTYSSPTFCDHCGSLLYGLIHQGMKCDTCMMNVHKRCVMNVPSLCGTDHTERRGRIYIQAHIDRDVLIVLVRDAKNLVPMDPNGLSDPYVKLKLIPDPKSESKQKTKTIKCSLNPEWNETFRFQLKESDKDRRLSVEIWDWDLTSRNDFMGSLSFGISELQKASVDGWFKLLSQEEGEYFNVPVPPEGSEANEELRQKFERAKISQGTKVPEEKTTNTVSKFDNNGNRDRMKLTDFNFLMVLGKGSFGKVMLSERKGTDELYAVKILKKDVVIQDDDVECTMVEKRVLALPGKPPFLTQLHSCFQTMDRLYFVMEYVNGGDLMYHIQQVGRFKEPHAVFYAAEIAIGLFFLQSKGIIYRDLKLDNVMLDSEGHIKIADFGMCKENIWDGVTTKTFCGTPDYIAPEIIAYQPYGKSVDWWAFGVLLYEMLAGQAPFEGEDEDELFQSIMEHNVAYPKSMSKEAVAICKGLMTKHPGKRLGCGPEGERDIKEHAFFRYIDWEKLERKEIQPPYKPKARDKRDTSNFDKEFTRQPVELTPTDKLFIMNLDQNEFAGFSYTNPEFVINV", "assay": "Protein Kinase Cβ1 assay", "format": "biochemical", "conditions": "for IC50: human recombinant PKCβ1, single compounds", "method": "(§1) The compounds of the invention are tested for their activity on different PKC isoforms according to the following method. Assay is performed in a white with clear bottom 384-well microtiterplate with non-binding surface. The reaction mixture (25 μl) contains 1.5 μM of a tridecapeptide acceptor substrate that mimics the pseudo substrate sequence of PKC a with the Ala→Ser replacement, 10 μM ^33P-ATP, 10 mM Mg(NO3)2, 0.2 mM CaCl2, PKC at a protein concentration varying from 25 to 400 ng/ml (depending on the isotype used), lipid vesicles (containing 30 mol % phosphatidylserine, 5 mol % DAG and 65 mol % phosphatidylcholine) at a final lipid concentration of 0.5 mM, in 20 mM Tris-HCl buffer pH 7.4+0.1% BSA. Incubation is performed for 60 min at room temperature. Reaction is stopped by adding […] of stop mix (100 mM EDTA, 200 μM ATP, 0.1% Triton X-100, 0.375 mg/well streptavidin-coated SPA beads in phosphate buffered saline w/o Ca, Mg. After 10 min incubation at room temperature, the suspension is spun down for 10 min at 300 g. Incorporated radioactivity is measured in a Trilux counter for 1 min. IC50 measurement is performed on a routine basis by incubating a serial dilution of inhibitor at concentrations ranging between 1-1000 μM. IC50 values are calculated from the graph by curve fitting with XL Fit® software.\nHuman recombinant PKCβ1 was obtained from Oxford Biomedical Research and is used under the assay conditions as described under Section A.1 above."}, "[2]": {"target": "Human recombinant PKCθ (Homo sapiens, UniProt Q04759)", "sequence (Q04759 whole entry)": "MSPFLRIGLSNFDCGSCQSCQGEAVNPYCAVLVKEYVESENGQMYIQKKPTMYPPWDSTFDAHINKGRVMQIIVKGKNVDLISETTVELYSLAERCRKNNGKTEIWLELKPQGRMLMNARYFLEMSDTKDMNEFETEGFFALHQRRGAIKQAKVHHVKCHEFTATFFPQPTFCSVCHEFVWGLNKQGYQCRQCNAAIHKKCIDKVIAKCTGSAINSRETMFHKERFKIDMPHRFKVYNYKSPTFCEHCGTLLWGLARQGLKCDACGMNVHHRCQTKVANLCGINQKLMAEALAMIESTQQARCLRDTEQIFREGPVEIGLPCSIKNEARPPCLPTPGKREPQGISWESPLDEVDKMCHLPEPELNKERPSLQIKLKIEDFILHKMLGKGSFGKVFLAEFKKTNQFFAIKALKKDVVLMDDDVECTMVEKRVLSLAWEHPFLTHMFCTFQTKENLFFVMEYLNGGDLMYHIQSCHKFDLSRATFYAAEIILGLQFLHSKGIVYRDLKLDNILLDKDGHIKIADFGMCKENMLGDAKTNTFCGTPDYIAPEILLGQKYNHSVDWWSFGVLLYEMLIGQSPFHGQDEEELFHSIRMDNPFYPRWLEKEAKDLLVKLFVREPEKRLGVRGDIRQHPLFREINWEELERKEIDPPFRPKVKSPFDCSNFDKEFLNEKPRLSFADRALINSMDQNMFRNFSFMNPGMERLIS", "assay": "Protein Kinase C θ assay", "format": "biochemical", "method": "as §1, with “software. […]” for “software.”"}, "[3]": {"target": "T2, Human recombinant PKCα (Homo sapiens, UniProt P17252)", "T2 construct": "purchased Oxford Biomedical Research", "assay": "Protein Kinase Cα assay", "format": "biochemical", "conditions": "single compounds", "method": "as §1\nHuman recombinant PKCα was obtained from Oxford Biomedical Research and is used under the assay conditions as described under Section A.1 above."}, "[4]": {"target": "T3, Human recombinant PKCδ (Homo sapiens, UniProt Q05655)", "T3 construct": "purchased Oxford Biomedical Research", "T3 sequence (Q05655 whole entry)": "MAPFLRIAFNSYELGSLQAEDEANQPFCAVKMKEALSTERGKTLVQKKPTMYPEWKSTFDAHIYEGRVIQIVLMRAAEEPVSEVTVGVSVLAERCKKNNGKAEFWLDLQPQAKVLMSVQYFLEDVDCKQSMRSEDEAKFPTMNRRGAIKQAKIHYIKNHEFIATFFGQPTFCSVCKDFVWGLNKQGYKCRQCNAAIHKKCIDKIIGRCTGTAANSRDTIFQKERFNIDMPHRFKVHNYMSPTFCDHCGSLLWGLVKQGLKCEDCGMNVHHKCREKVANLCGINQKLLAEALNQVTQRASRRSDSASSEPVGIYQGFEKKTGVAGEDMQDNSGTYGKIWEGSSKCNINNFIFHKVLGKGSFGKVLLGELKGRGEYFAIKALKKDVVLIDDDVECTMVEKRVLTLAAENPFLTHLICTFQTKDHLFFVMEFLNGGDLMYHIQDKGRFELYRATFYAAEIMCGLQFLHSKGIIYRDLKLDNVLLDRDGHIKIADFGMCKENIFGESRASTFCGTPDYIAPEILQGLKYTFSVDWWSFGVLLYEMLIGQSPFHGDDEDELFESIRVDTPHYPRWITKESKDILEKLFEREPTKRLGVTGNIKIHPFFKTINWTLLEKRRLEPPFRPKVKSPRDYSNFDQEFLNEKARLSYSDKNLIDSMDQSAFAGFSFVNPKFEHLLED", "assay": "Protein Kinase Cδ assay", "format": "biochemical", "method": "as §1, with “software. […]” for “software.”"}, "[5]": {"target": "T4, Human recombinant PKCε (Homo sapiens, UniProt Q02156)", "T4 construct": "purchased Oxford Biomedical Research", "T4 sequence (Q02156 1-737)": "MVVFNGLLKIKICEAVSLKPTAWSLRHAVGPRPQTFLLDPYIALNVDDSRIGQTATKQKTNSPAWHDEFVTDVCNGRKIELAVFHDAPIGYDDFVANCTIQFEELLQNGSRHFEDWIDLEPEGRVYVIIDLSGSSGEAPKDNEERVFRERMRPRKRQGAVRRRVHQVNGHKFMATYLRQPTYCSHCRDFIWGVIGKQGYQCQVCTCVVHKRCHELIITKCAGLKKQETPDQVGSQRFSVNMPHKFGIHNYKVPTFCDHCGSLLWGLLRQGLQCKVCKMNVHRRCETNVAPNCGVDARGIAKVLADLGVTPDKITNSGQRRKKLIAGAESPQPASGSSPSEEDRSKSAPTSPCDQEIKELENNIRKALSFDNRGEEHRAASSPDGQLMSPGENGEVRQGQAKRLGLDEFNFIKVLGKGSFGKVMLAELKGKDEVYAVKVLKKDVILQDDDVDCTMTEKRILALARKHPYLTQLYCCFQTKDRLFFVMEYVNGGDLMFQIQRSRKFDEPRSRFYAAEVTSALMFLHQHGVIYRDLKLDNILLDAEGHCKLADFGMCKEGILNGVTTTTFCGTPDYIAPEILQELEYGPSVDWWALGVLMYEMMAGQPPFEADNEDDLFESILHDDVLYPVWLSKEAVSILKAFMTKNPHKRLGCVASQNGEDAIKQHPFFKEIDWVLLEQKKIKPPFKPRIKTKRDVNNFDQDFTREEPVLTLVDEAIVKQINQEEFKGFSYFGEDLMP", "assay": "Protein Kinase Cε assay", "format": "biochemical", "method": "as §1, with “software. […]” for “software.”"}, "[6]": {"target": "T5, Human recombinant PKCη (Homo sapiens, UniProt P24723)", "T5 construct": "purchased PanVera", "T5 sequence (P24723 whole entry)": "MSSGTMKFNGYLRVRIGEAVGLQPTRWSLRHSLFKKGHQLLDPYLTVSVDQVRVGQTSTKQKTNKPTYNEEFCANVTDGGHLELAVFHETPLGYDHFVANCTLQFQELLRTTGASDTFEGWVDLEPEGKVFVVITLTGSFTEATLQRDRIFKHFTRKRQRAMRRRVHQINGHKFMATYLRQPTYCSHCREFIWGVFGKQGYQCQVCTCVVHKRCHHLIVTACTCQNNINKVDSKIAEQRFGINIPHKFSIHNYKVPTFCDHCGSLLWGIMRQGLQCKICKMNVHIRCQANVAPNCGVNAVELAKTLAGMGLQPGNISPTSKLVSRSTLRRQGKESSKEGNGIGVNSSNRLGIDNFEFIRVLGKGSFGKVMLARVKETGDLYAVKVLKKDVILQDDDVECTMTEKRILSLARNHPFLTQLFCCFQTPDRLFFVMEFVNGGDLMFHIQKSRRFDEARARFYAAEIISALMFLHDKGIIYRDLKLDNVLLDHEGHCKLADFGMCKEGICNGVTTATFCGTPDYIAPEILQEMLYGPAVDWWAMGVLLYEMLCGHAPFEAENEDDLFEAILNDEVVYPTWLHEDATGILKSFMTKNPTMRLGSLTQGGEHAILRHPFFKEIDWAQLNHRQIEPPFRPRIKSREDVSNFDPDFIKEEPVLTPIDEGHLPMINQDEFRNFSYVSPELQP", "assay": "Protein Kinase Cη assay", "format": "biochemical", "method": "as §1, with “software. […]” for “software.”"}, "[7]": {"system": "spleen cells from CBA and BALB/c mice", "assay": "Allogeneic Mixed Lymphocyte Reaction (MLR), compared with BM assay", "format": "cell-based", "method": "The two-way MLR is performed according to standard procedures (J. Immunol. Methods, 1973, 2, 279 and Meo T. et al., Immunological Methods, New York, Academic Press, 1979, 227-39). Briefly, spleen cells from CBA and BALB/c mice (1.6×10^5 cells from each strain per well in flat bottom tissue culture microtiter plates, 3.2×10^5 in total) are incubated in RPMI medium containing 10% FCS, 100 U/ml penicillin, 100 μg/ml streptomycin (Gibco BRL, Basel, Switzerland), 50 μM 2-mercaptoethanol (Fluka, Buchs, Switzerland) and serially diluted compounds. Seven three-fold dilution steps in duplicates per test compound are performed. After four days of incubation 1 μCi ^3H-thymidine is added. Cells are harvested after an additional five-hour incubation period, and incorporated ^3H-thymidine is determined according to standard procedures. […]\nThe ratios of the IC50 value for PKC β to the IC50 value for PKCα, of the IC50 value for PKC δ to the IC50 value for PKCα, of the IC50 value for PKC δ to the IC50 value for PKCα, of the IC50 value for PKC ε to the IC50 value for PKCα, of the IC50 value for PKC η to the IC50 value for PKCα, of the IC50 value for PKC θ to the IC50 value for PKCα, of the IC50 value as determined by the MLR assay and to the IC50 value as determined by the BM assay, obtained for some compounds of the invention are indicated in table 11."}},
  "data": [
    {"smiles": "Cc1cccc2c(C3=C(c4c(Cl)ccc5ncc(CN(C)C)cc45)C(=O)NC3=O)c[nH]c12", "note": "[Example 136]", "values": [
      {"measurement": "IC50", "setting": "[1]", "value": 0.051, "unit": "µM"}
    ]},
    {"smiles": "CN(C)Cc1ccc2ccc(Cl)c(C3=C(c4cn5c6c(cccc46)OCCC5)C(=O)NC3=O)c2c1", "note": "[Example 20]", "values": [
      {"measurement": "θ/α (ratio of the IC50 value for PKC θ to the IC50 value for PKCα)", "setting": "[2]", "value": 14.2},
      {"measurement": "IC50", "setting": "[3]", "value": 0.028, "unit": "µM"},
      {"measurement": "β/α (ratio of the IC50 value for PKC β to the IC50 value for PKCα)", "setting": "[1]", "value": 0.4},
      {"measurement": "IC50", "setting": "[1]", "value": 0.0124, "unit": "µM"},
      {"measurement": "δ/α (ratio of the IC50 value for PKC δ to the IC50 value for PKCα)", "setting": "[4]", "value": 30.6},
      {"measurement": "ε/α (ratio of the IC50 value for PKC ε to the IC50 value for PKCα)", "setting": "[5]", "value": ">35.7"},
      {"measurement": "η/α (ratio of the IC50 value for PKC η to the IC50 value for PKCα)", "setting": "[6]", "value": ">35.7"},
      {"measurement": "BM/MLR (ratio of IC50 by the BM assay and IC50 by the MLR assay)", "setting": "[7]", "value": ">10"}
    ]},
    {"smiles": "CN(C)Cc1ccc2ccc(Cl)c(C3=C(c4cn(C)c5ccccc45)C(=O)NC3=O)c2n1", "note": "[Example 163]", "values": [
      {"measurement": "IC50", "setting": "[1]", "value": 0.041, "unit": "µM"}
    ]},
    {"smiles": "COCCOc1ccc2c(C3=C(c4c(Cl)ccc5ccc(CN(C)C)cc45)C(=O)NC3=O)c[nH]c2c1", "note": "[Example 38]", "values": [
      {"measurement": "IC50", "setting": "[3]", "value": 0.009, "unit": "µM"}
    ]},
    {"smiles": "CN(C)Cc1cc2c(C3=C(c4c[nH]c5ccccc45)C(=O)NC3=O)c(Cl)ccc2cn1", "note": "[Example 146]", "values": [
      {"measurement": "IC50", "setting": "[1]", "value": 0.025, "unit": "µM"}
    ]},
    {"smiles": "Cn1cc(C2=C(c3c(Cl)ccc4ccc(CNCCF)cc34)C(=O)NC2=O)c2ccccc21", "note": "[Example 1, 3-{2-Chloro-7-[(2-fluoro-ethylamino)-methyl]-naphthalen-1-yl}-4-(1-methyl-1H-indol-3-yl)-pyrrole-2,5-dione]", "values": [
      {"measurement": "θ/α (ratio of the IC50 value for PKC θ to the IC50 value for PKCα)", "setting": "[2]", "value": 2.9},
      {"measurement": "β/α (ratio of the IC50 value for PKC β to the IC50 value for PKCα)", "setting": "[1]", "value": 0.5},
      {"measurement": "δ/α (ratio of the IC50 value for PKC δ to the IC50 value for PKCα)", "setting": "[4]", "value": 7.1},
      {"measurement": "ε/α (ratio of the IC50 value for PKC ε to the IC50 value for PKCα)", "setting": "[5]", "value": 19.4},
      {"measurement": "η/α (ratio of the IC50 value for PKC η to the IC50 value for PKCα)", "setting": "[6]", "value": 39.3},
      {"measurement": "BM/MLR (ratio of IC50 by the BM assay and IC50 by the MLR assay)", "setting": "[7]", "value": 41.3}
    ]},
    {"smiles": "COc1cccc2c(C3=C(c4c(Cl)ccc5ccc(CN(C)C)cc45)C(=O)NC3=O)c[nH]c12", "note": "[Example 37]", "values": [
      {"measurement": "IC50", "setting": "[3]", "value": 0.003, "unit": "µM"}
    ]}
  ]
}
